Measured values taken from patent US11214803B2, “Modulators of YAP1 expression” (Ionis Pharmaceuticals, Inc., priority 2019, dated 2022).
Strand notation (5' to 3'): a small letter for the sugar, then the base; units joined by * are phosphorothioate-linked, units joined directly phosphodiester-linked; [ ] holds rarer units or linkages, { } end groups; capitals alone tell only the bases. k = constrained ethyl (cEt); [5mC] = 5-methylcytosine; d = 2'-deoxy (DNA)

test system: Yap1 mRNA; test: Antisense inhibition of human Yap1 in A-431 cells by cEt gapmers, single dose (Example 3, RTS36584); format: cell-based; conditions: Table 8; A-431 cells, 5,000 cells per well, free uptake, 2,000 nM, approximately 48 hours; RTS36584; normalized to RIBOGREEN; Yap1 mRNA relative to untreated control cells
Method in brief: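 Read-out is Yap1 mRNA as percent of untreated control, by quantitative RT-PCR normalized to total RNA (RiboGreen). Cells (A-431) received 2,000 nM of 3-10-3 cEt phosphorothioate gapmer via free uptake for roughly 48 hours.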

Row | Substance | YAP1 (% UTC)
1 | 958408 (antisense k[5mC]*kT*kA*dT*dA*dT*dA*dT*dG*dG*dT*dA*dG*kT*k[5mC]*kT) [Compound 958408] | 20
2 | 958353 (antisense kT*k[5mC]*kG*dG*dT*d[5mC]*dT*d[5mC]*d[5mC]*dG*dA*dG*dT*k[5mC]*k[5mC]*k[5mC]) [Compound 958353] | 43
3 | 958354 (antisense kG*kT*k[5mC]*dG*dG*dT*d[5mC]*dT*d[5mC]*d[5mC]*dG*dA*dG*kT*k[5mC]*k[5mC]) [Compound 958354] | 31
4 | 958414 (antisense k[5mC]*kA*kG*dA*dA*dT*dT*d[5mC]*d[5mC]*d[5mC]*dA*dA*dG*k[5mC]*kT*kA) [Compound 958414] | 73

same assay, conditions: Table 9; A-431 cells, 5,000 cells per well, free uptake, 2,000 nM, approximately 48 hours; RTS36584; normalized to RIBOGREEN; Yap1 mRNA relative to untreated control cells

Row | Substance | YAP1 (% UTC)
5 | 958641 (antisense kA*kG*k[5mC]*dT*dA*d[5mC]*dA*dG*dA*dG*d[5mC]*dT*dT*kA*kA*k[5mC]) [Compound 958641] | 102
6 | 958491 (kA*k[5mC]*kT*dA*dA*dA*dT*dG*d[5mC]*dT*dG*dT*dG*kA*k[5mC]*kA; antisense) [Compound 958491] | 4
7 | 958546 (k[5mC]*kA*kT*dA*d[5mC]*dT*d[5mC]*dT*dA*dG*dT*dT*dA*k[5mC]*kA*kT; antisense) [Compound 958546] | 6
8 | 958676 (kG*kA*kA*d[5mC]*dT*dT*dA*dG*dT*dT*d[5mC]*d[5mC]*d[5mC]*kT*kA*kT; antisense) [Compound 958676] | 34
9 | 958566 (kA*k[5mC]*k[5mC]*dT*dA*dT*dG*dA*dA*d[5mC]*dT*dA*dT*kT*kA*kT; antisense) [Compound 958566] | 18
10 | 958791 (antisense k[5mC]*kA*kT*dA*dA*dG*dA*dA*dA*dA*dG*dA*d[5mC]*kG*kA*k[5mC]) [Compound 958791] | 123
11 | 958496 (k[5mC]*k[5mC]*kT*dT*dA*dT*dA*dA*dG*d[5mC]*dT*d[5mC]*d[5mC]*kT*kA*kA; antisense) [Compound 958496] | 3
12 | 958481 (antisense kG*k[5mC]*kA*dA*d[5mC]*dT*dG*dG*d[5mC]*dT*dT*dA*dT*kG*kG*kA) [Compound 958481] | 6
13 | 958561 (kA*k[5mC]*kA*d[5mC]*dA*dG*dA*dG*dG*dT*dG*d[5mC]*dT*kA*kG*k[5mC]; antisense) [Compound 958561] | 48

same assay, conditions: Table 10; A-431 cells, 5,000 cells per well, free uptake, 2,000 nM oligonucleotide, approx. 48 hours; primer probe set RTS36584; Yap1 mRNA normalized to RIBOGREEN, percent of untreated control

Row | Substance | YAP1 (% UTC)
14 | 958542 (kT*kA*kT*dA*dG*dT*dA*dT*dT*d[5mC]*dT*dA*dT*k[5mC]*k[5mC]*kA; antisense) [Compound 958542] | 4
15 | 958752 (antisense kG*kA*kA*dT*dT*dT*dT*dT*dA*dG*dT*d[5mC]*d[5mC]*kA*kG*kT) [Compound 958752] | 2
16 | 958437 (antisense kA*kG*kG*d[5mC]*dA*d[5mC]*dT*d[5mC]*dG*dG*dA*d[5mC]*d[5mC]*kT*kG*k[5mC]) [Compound 958437] | 84

same assay, conditions: Table 11; A-431 cells, 5,000 cells per well, free uptake, 2,000 nM oligonucleotide, approx. 48 hours; primer probe set RTS36584; Yap1 mRNA normalized to RIBOGREEN, percent of untreated control

Row | Substance | YAP1 (% UTC)
17 | 958458 (antisense kG*kT*kT*d[5mC]*dA*dT*d[5mC]*dT*dG*dG*dG*dA*d[5mC]*kA*kG*k[5mC]) [Compound 958458] | 12
18 | 958683 (kT*kA*kT*dT*dG*dT*dG*d[5mC]*dT*dG*d[5mC]*dA*dT*k[5mC]*kT*k[5mC]; antisense) [Compound 958683] | 16
19 | 958518 (k[5mC]*k[5mC]*kA*d[5mC]*dA*dG*dT*dA*dA*dT*dA*dG*d[5mC]*kT*k[5mC]*kT; antisense) [Compound 958518] | 1

same assay, conditions: Table 12; A-431 cells, 5,000 cells per well, free uptake, 2,000 nM modified oligonucleotide, approx. 48 hours; RTS36584; normalized to RIBOGREEN; Yap1 mRNA relative to untreated control cells

Row | Substance | YAP1 (% UTC)
20 | 958734 (antisense kA*k[5mC]*kA*d[5mC]*dA*dT*dA*dG*dA*dG*d[5mC]*dT*dA*kA*kG*kG) [Compound 958734] | 7
21 | 958614 (antisense kG*kT*k[5mC]*dT*dT*dG*dT*dT*d[5mC]*dT*dT*dA*dT*kG*kG*kT) [Compound 958614] | 6
22 | 958569 (kA*kG*k[5mC]*d[5mC]*dT*dT*dA*dG*dA*dG*dT*d[5mC]*dA*kA*kT*kT; antisense) [Compound 958569] | 3
23 | 958639 (antisense kG*kT*kT*dA*dT*dG*dG*dG*dT*dG*d[5mC]*dT*dT*kT*kT*k[5mC]) [Compound 958639] | 18
24 | 958674 (kA*kA*kG*dA*dA*d[5mC]*dT*dT*dA*dG*dT*dT*d[5mC]*k[5mC]*k[5mC]*kT; antisense) [Compound 958674] | 25

same assay, conditions: Table 13; A-431 cells, 5,000 cells per well, free uptake, 2,000 nM modified oligonucleotide, approx. 48 hours; RTS36584; normalized to RIBOGREEN; Yap1 mRNA relative to untreated control cells

Row | Substance | YAP1 (% UTC)
25 | 958505 (kG*kA*kT*dA*dA*dT*d[5mC]*dG*dA*dG*dA*dT*dT*kT*kA*kA; antisense) [Compound 958505] | 6
26 | 958535 (kG*kG*kG*dT*d[5mC]*dA*dA*dT*dT*dT*dT*d[5mC]*dA*kG*k[5mC]*kA; antisense) [Compound 958535] | 10
27 | 958525 (kA*kT*kG*dA*dA*dG*dG*dT*dA*dA*dA*d[5mC]*d[5mC]*kA*k[5mC]*kT; antisense) [Compound 958525] | 3
28 | 958705 (antisense kG*kG*k[5mC]*d[5mC]*dA*dT*d[5mC]*dA*dA*dT*dA*dA*dA*kG*kA*k[5mC]) [Compound 958705] | 112

same assay, conditions: Table 26; Yap1 mRNA by 3-10-3 cEt gapmers targeting SEQ ID NO.: 1, and 2; percent of untreated control

Row | Substance | YAP1 (% UTC)
29 | 1074924 (antisense k[5mC]*k[5mC]*kT*dG*d[5mC]*dA*dA*dA*dT*dA*dG*dG*dA*kG*kA*kG) [compound 1074924] | 87

same assay, conditions: Table 27; Yap1 mRNA by 3-10-3 cEt gapmers targeting SEQ ID NO.: 1, and 2; percent of untreated control

Row | Substance | YAP1 (% UTC)
30 | 1075885 (antisense k[5mC]*kA*kT*dT*dA*dG*dT*dA*dA*dT*dG*dA*d[5mC]*kT*kA*kA) [compound 1075885] | 112
31 | 1075693 (k[5mC]*kA*kT*dT*dA*dA*dA*dA*dG*dT*dT*dG*dG*kG*kT*kT; antisense) [compound 1075693] | 36
32 | 1075469 (antisense kT*kG*kA*dT*dA*dT*dA*dA*dT*dG*dA*d[5mC]*d[5mC]*kA*kA*kG) [compound 1075469] | 25
33 | 1075565 (kT*kA*kT*dA*dT*dA*dA*d[5mC]*dA*dG*dG*d[5mC]*d[5mC]*kA*k[5mC]*k[5mC]; antisense) [compound 1075565] | 52

same assay, conditions: Table 28; Yap1 mRNA as percent of untreated control; 3-10-3 cEt gapmers targeting SEQ ID NO.: 1, and 2

Row | Substance | YAP1 (% UTC)
34 | 1074830 (kG*kA*kG*dG*dA*dT*dA*dA*dA*dA*dT*d[5mC]*d[5mC]*kA*k[5mC]*k[5mC]; antisense) [compound 1074830] | 89

same assay, conditions: Table 29; Yap1 mRNA as percent of untreated control; 3-10-3 cEt gapmers targeting SEQ ID NO.: 1, and 2

Row | Substance | YAP1 (% UTC)
35 | 1074383 (kT*k[5mC]*kA*dA*dG*dG*dT*dA*dG*dT*d[5mC]*dT*dG*kG*kG*kA; antisense) [compound 1074383] | 40
36 | 1076111 (kA*kA*kT*dT*dA*dG*dT*dT*dA*dG*dG*dA*dT*kA*kT*k[5mC]; antisense) [compound 1076111] | 67
37 | 1074287 (antisense kA*k[5mC]*kT*dG*dA*dT*dT*d[5mC]*dT*d[5mC]*dT*dG*dG*kT*kT*k[5mC]) [compound 1074287] | 11
38 | 1074255 (antisense kT*k[5mC]*kA*dT*d[5mC]*dT*dG*dG*dG*dA*d[5mC]*dA*dG*k[5mC]*kA*kT) [compound 1074255] | 16

same assay, conditions: Table 34; Yap1 mRNA as percent of untreated control; 3-10-3 cEt gapmers targeting SEQ ID NO: 1 and 2; single dose

Row | Substance | YAP1 (% UTC)
39 | 1076372 (antisense k[5mC]*kA*kA*dT*dA*dA*dG*dA*dA*d[5mC]*dG*dA*dA*k[5mC]*k[5mC]*kT) [compound 1076372] | 76
40 | 1075060 (antisense kG*kT*kT*dT*dA*dA*d[5mC]*dA*dA*dT*d[5mC]*dT*d[5mC]*k[5mC]*k[5mC]*k[5mC]) [compound 1075060] | 70
41 | 1075636 (antisense k[5mC]*kA*kA*dT*dA*dA*dA*d[5mC]*dA*d[5mC]*d[5mC]*dT*d[5mC]*kG*k[5mC]*k[5mC]) [compound 1075636] | 91

same assay, conditions: Table 35; Yap1 mRNA as percent of untreated control; 3-10-3 cEt gapmers targeting SEQ ID NO: 1 and 2; single dose

Row | Substance | YAP1 (% UTC)
42 | 1075189 (kG*k[5mC]*kT*dA*dA*dT*dA*dG*dT*d[5mC]*dA*d[5mC]*dT*kG*kT*kT; antisense) [compound 1075189] | 11
43 | 1074261 (antisense k[5mC]*k[5mC]*kG*dA*dG*dT*dT*d[5mC]*dA*dT*d[5mC]*dA*dT*kA*kT*kT) [compound 1074261] | 19
44 | 1074197 (antisense kT*kG*k[5mC]*d[5mC]*d[5mC]*dG*dG*dG*dT*d[5mC]*d[5mC]*dG*dG*kA*k[5mC]*kG) [compound 1074197] | 91
45 | 1074997 (antisense kG*k[5mC]*k[5mC]*dG*d[5mC]*dG*dA*dG*dG*dA*dA*dA*dA*kT*kA*kA) [compound 1074997] | 119
46 | 1076533 (kA*kT*kT*dT*dT*dT*dA*dG*dT*d[5mC]*d[5mC]*dA*dG*kT*kG*kG; antisense) [compound 1076533] | 9
